In brackets after ≈: the same amount, converted by molar mass. Structures can show the parent of a compound that is named as a salt.
Tests used:
[1] = test system: influenza A virus, strain A/jifang/90-15; test: microbe, parasite or virus in culture; type: cell-based; settings: for IC50: Influenza A virus, Influenza strain A/jifang/90-15, MDCK cells, CPE, Reed-Muench, read-out: IC50; for SI: Influenza strain A/jifang/90-15
[2] = test system: Madin-Darby canine kidney (MDCK) cells
[3] = test system: HBeAg; test: In vitro anti-HBV activity: HBeAg production in HBV-infected 2.2.15 cells (RIA); type: cell-based, Hepatitis B virus (HBV); settings: for IC50: Hepatitis B virus, read-out: HBeAg IC50; for HBeAg SI: selectivity index
Procedure: (§1) All compounds were evaluated for their anti-HBV activities, namely the ability to inhibit the replication of HBV DNA and the production of HBsAg and HBeAg in HBV-infected 2.2.15 cells.
(§2) The samples were dissolved in DMSO for appropriate concentrations, and then each was diluted 3-fold with culture medium. The 2.2.15 cells were planted into 96-well culture plates. […] The culture supernatants and 2.2.15 cells were collected respectively on the 8th plant day. The secretion concentrations of HBsAg and HBeAg in the culture supernatants were measured by RIA on SPRIA Kit for Detection of HBsAg and HBeAg (Beijing North Institute of Biological Technology), and the replication of HBV DNA was measured by dot hybridization with a^32PdCTP (FuRui Biological Technology Ltd., China).

[4] = test system: 2.2.15 cells; test: Cytotoxicity (TC50) in 2.2.15 cells; type: cell-based
[5] = test system: HBsAg; test: In vitro anti-HBV activity: HBsAg production in HBV-infected 2.2.15 cells (RIA); type: cell-based, Hepatitis B virus (HBV); settings: for IC50: Hepatitis B virus, read-out: HBsAg IC50; for HBsAg SI: selectivity index
Procedure: as §1, §2

[6] = test system: HBV DNA; test: In vitro anti-HBV activity: replication of HBV DNA in 2.2.15 cells (dot hybridization); type: cell-based, Hepatitis B virus (HBV); settings: for IC50: Hepatitis B virus, read-out: DNA replication IC50; for DNA replication SI: selectivity index
Outline: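 HBV-producing 2.2.15 cells exposed to 3-fold serial dilutions of compound (DMSO stocks diluted in medium); cells and supernatants harvested on day 8. Intracellular HBV DNA replication quantified by dot hybridization with α-32P-dCTP probe; HBsAg/HBeAg in supernatant by RIA.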

Row | SMILES | IC50 [1] | SI [1] | TC50 [2] | IC50 [3] | HBeAg SI [3] | TC50 [4] | IC50 [5] | HBsAg SI [5] | IC50 [6] | DNA replication SI [6]
1 | CCOC(=O)c1c(CSCc2ccccc2)n(C)c2cc(Br)c(O)c(Cn3ccnc3)c12 [Example 176, Ethyl 6-bromo-5-hydroxy-4-[(1-imidazolyl)methyl]-1-methyl-2-(benzylthiomethyl)-1H-indole-3-carboxylate] | 15.6 µg/mL (≈ 30.4 µM) | 8.0 | 125 µg/mL (≈ 243 µM) |  |  |  |  |  |  | 
2 | CCOC(=O)c1c(C[S+]([O-])Cc2cscn2)n(C2CC2)c2cc(Br)c(O)c(Cn3ccnc3)c12 (stereo not drawn) [Example 128, Ethyl 6-bromo-1-cyclopropyl-5-hydroxy-4-[(1-imidazolyl)methyl]-2-[(4-thiazolylmethyl)sulfinylmethyl]-1H-indole-3-carboxylate dihydrochloride] |  |  |  | 8.06 µg/mL | 6.63 | 53.42 µg/mL | 7.23 µg/mL | 7.39 |  | 
3 | CCOC(=O)c1c(CSc2nc3ccccc3[nH]2)n(C)c2cc(Br)c(O)c(CN(C)C)c12 [Example 3, Ethyl 6-bromo-4-[(dimethylamino)methyl]-5-hydroxy-1-methyl-2-[(benzo[d]imidazol-2-yl)thiomethyl]-1H-indole-3-carboxylate] | 7.81 µg/mL (≈ 15.1 µM) | 1.59 | 12.4 µg/mL (≈ 24 µM) |  |  |  |  |  |  | 
4 | CCOC(=O)c1c(CSCc2ccccc2F)n(C2CC2)c2cc(Br)c(O)c(Cn3cncn3)c12 [Example 186, Ethyl 6-bromo-1-cyclopropyl-5-hydroxy-4-[(1H-1,2,4-triazol-1-yl)methyl]-2-[(2-fluorobenzyl)thiomethyl]-1H-indole-3-carboxylate] | 9.17 µg/mL (≈ 16.4 µM) | 6.82 | 62.5 µg/mL (≈ 112 µM) |  |  |  |  |  |  | 
5 | CCOC(=O)c1c(CSCc2ccc(F)cc2)n(C)c2cc(Br)c(O)c(Cn3cncn3)c12 [Example 187, Ethyl 6-bromo-5-hydroxy-1-methyl-4-[(1H-1,2,4-triazol-1-yl)methyl]-2-[(4-fluorobenzyl)thiomethyl]-1H-indole-3-carboxylate] | 26.6 µg/mL (≈ 49.9 µM) | 1.66 | 44.19 µg/mL (≈ 82.8 µM) |  |  |  |  |  |  | 
6 | CCOC(=O)c1c(C[S+]([O-])Cc2ccccc2)n(C2CC2)c2cc(Br)c(O)c(Cn3ccnc3)c12 (stereo not drawn) [Example 126, Ethyl 6-bromo-1-cyclopropyl-5-hydroxy-4-[(1-imidazolyl)methyl]-2-(benzylsulfinylmethyl)-1H-indole-3-carboxylate] | 11.1 µg/mL (≈ 19.9 µM) | 4.0 | 44.19 µg/mL (≈ 79.4 µM) |  |  | 35.61 µg/mL (≈ 64 µM) |  |  | 6.36 µg/mL (≈ 11.4 µM) | 5.60
7 | CCOC(=O)c1c(CSCc2ccccc2)n(C2CC2)c2cc(Br)c(O)c(CNC(=N)N)c12 [Example 188, Ethyl 6-bromo-1-cyclopropyl-4-(guanidinylmethyl)-5-hydroxy-2-(benzylthiomethyl)-1H-indole-3-carboxylate] | 9.85 µg/mL (≈ 18.5 µM) | 4.0 | 39.37 µg/mL (≈ 74.1 µM) |  |  |  |  |  |  | 
8 | CCOC(=O)c1c(CSc2ccccc2)n(C)c2cc(Br)c(O)c(CN(C)C)c12.Cl.O [Abidol, Ethyl 6-bromo-4-[(dimethylamino)methyl]-5-hydroxy-1-methyl-2-(phenyl-thiomethyl)-1H-indole-3-carboxylate hydrochloride monohydrate, reference compound] | 23.2 µg/mL | 2.69 | 62.5 µg/mL |  |  |  |  |  |  | 
9 | CCOC(=O)c1c(CS(=O)(=O)c2cccc(OC)c2)n(C)c2ccc(O)c(CN3CCCC3)c12 [Example 72, Ethyl 5-hydroxy-1-methyl-4-(1-pyrrolidinylmethyl)-2-[(3-methoxyphenyl)sulfonylmethyl]-1H-indole-3-carboxylate hydrochloride] |  |  |  | 15.4 µg/mL | 6.9 | 106.83 µg/mL |  |  | 15.4 µg/mL | 6.9
10 | CCOC(=O)c1c(CSc2nc3ccccc3[nH]2)n(C)c2cc(Br)c(O)c(CNC(=N)N)c12 [Example 189, Ethyl 6-bromo-4-(guanidinylmethyl)-5-hydroxy-1-methyl-2-[(benzo[d]imidazol-2-yl)thiomethyl]-1H-indole-3-NL carboxylate] |  |  |  | 28 µg/mL (≈ 52.6 µM) | 9.25 | 258.69 µg/mL (≈ 487 µM) | 12.5 µg/mL (≈ 23.6 µM) | 20.66 | 12.4 µg/mL (≈ 23.3 µM) | 20.91
11 | CCOC(=O)c1c(CSCc2ccccc2F)n(C2CC2)c2cc(Br)c(O)c(CN3CCCC3)c12.Cl [Example 14, Ethyl 6-bromo-1-cyclopropyl-5-hydroxy-4-(1-pyrrolidinylmethyl)-2-[(2-fluorobenzyl)thiomethyl]-1H-indole-3-carboxylate hydrochloride] | 0.92 µg/mL | 2.7 | 2.48 µg/mL |  |  |  |  |  |  | 
12 | CCOC(=O)c1c(CS(=O)(=O)Cc2ccccc2)n(C2CC2)c2cc(Br)c(O)c(Cn3ccnc3C)c12 [Example 178, Ethyl 6-bromo-1-cyclopropyl-5-hydroxy-4-[(2-methyl-1-imidazolyl)methyl]-2-(benzylsulfonylmethyl)-1H-indole-3-carboxylate] | 7.81 µg/mL (≈ 13.3 µM) | 10.08 | 78.75 µg/mL (≈ 134 µM) |  |  |  |  |  |  | 
13 | CCOC(=O)c1c(C[S+]([O-])Cc2cscn2)n(C2CC2)c2cc(Br)c(O)c(Cn3ccnc3C)c12 (stereo not drawn) [Example 182, Ethyl 6-bromo-1-cyclopropyl-5-hydroxy-4-[(2-methyl-1-imidazolyl)methyl]-2-[(4-thiazolylmethyl)sulfinylmethyl]-1H-indole-3-carboxylate dihydrochloride] |  |  |  | 7.69 µg/mL | 8.34 | 64.15 µg/mL | 4.66 µg/mL | 13.77 |  | 
14 | CCOC(=O)c1c(CSCc2ccc(F)cc2)n(C)c2cc(Br)c(O)c(CN(C)C)c12.Cl [Example 5, Ethyl 6-bromo-4-[(dimethylamino)methyl]-5-hydroxy-1-methyl-2-[(4-fluorobenzyl)thiomethyl]-1H-indole-3-carboxylate hydrochloride] | 7.81 µg/mL | 6.34 | 49.51 µg/mL |  |  |  |  |  |  | 
15 | CCOC(=O)c1c(CS(=O)(=O)C23CC4CC(CC(C4)C2)C3)n(C)c2cc(Br)c(O)c(Cn3ccnc3C)c12 [Example 179, Ethyl 6-bromo-5-hydroxy-1-methyl-4-[(2-methyl-1-imidazolyl)methyl]-2-[(1-adamantanyl)sulfonylmethyl]-1H-indole-3-carboxylate] |  |  |  | 1.91 µg/mL (≈ 3.16 µM) | 5.60 | 10.69 µg/mL (≈ 17.7 µM) | 1.88 µg/mL (≈ 3.11 µM) | 5.69 |  | 
16 | CCOC(=O)c1c(CSCc2ccccc2)n(C2CC2)c2cc(Br)c(O)c(Cn3ccnc3)c12 [Example 91, Ethyl 6-bromo-1-cyclopropyl-5-hydroxy-4-[(1-imidazolyl)methyl]-2-(benzylthiomethyl)-1H-indole-3-carboxylate] | 15.6 µg/mL (≈ 28.9 µM) | 18.77 | 293.37 µg/mL (≈ 543 µM) |  |  |  |  |  |  | 
17 | CCOC(=O)c1c(CSCc2ccccc2)n(C)c2cc(Br)c(O)c(CNC(=N)N)c12 [Example 104, Ethyl 6-bromo-4-(guanidinylmethyl)-5-hydroxy-1-methyl-2-(benzylthiomethyl)-1H-indole-3-carboxylate] | 13.3 µg/mL (≈ 26.4 µM) | 11.16 | 148.65 µg/mL (≈ 294 µM) |  |  |  |  |  |  | 
18 | CCOC(=O)c1c(CSCc2ccc(F)cc2)n(C)c2cc(Br)c(O)c(Cn3ccnc3C)c12 [Example 100, Ethyl 6-bromo-5-hydroxy-1-methyl-4-[(2-methyl-1-imidazolyl)methyl]-2-[(4-fluorobenzyl)thiomethyl]-1H-indole-3-carboxylate] | 22.1 µg/mL (≈ 40.4 µM) | 2.24 | 49.61 µg/mL (≈ 90.8 µM) |  |  |  |  |  |  | 

— patent US7960427B2, “5-hydroxyindole-3-carboxylate derivatives and uses thereof” (priority 2004, dated 2011)
